This is an account of results in publication PMC8834506, “Optimization of Thymidine Kinase-Based Safety Switch for Neural Cell Therapy” (Cells, 2022).

The data set concerns non-transduced hESC colonies. The experiment in a line: Morphology and size of hESC colonies upon nucleoside treatment. The format is cell-based, human. From the text: We next investigated the impact of ACV, PCV, and GCV on non-transduced hESC and neuroprogenitors (proliferating ReNcells). […] To further understand the impact of nucleoside analogs on non-transduced cells, we performed γ-H2A.X immunostaining (Figure 6B). There was a graded response, virtually identical in hESC and in neuroprogenitors. […] In addition, we investigated the morphology and size of non-transduced hESC colonies upon nucleoside treatment. […] Taken together, our findings confirm considerable toxicity of GCV, even in the absence of viral TK. Note that this was not the case for PCV despite the fact that it is a potent inducer of cell death in thymidine kinase-expressing cells.
Cells were exposed to 100 µM of the respective nucleoside for 48 h. DNA damage was monitored using γ-H2A.X marker in yellow and nuclei were counterstained with Hoechst. The white box in the first column indicates the area of the zoom for the hESC colonies.

Regarding `Nc1nc(O)c2ncn(COC(CO)CO)c2n1` [GCV, ganciclovir], the “Effect on morphology and size of colonies” value is “smaller colonies”.
